This is an account of results in patent US20130302282A1, “Inhibitors of Hepatitis C Virus” (priority 2010, published 2013).

In one experiment the test system is HCV 1a. Nature of the experiment: HCV 1a replicon assay. It counts as cell-based. To be noted: Hepatitis C virus; class symbol; cell marked (HCV genotype 1a replicon); read-out: Inhibition of HCV genotype 1a replicon. As for the experimental part: Compounds of the invention can inhibit multiple genotypes of HCV selected but not limited to 1a, 1h, 2a, 3a, and 4a. The EC50s are measured in the corresponding replicon assays that are similar to HCV 1b replicon assay as described above.
(§1) The biological activity against HCV 1b, 1a, or 2a is indicated as being *, **, ***, or ****, which corresponds to EC50 ranges of EC50>1000 nM, 100 nM<EC50≦1000 nM, 10 nM<EC50≦100 nM, or EC50≦10 nM, respectively. The biological activity against HCV NS5B C316Y or S365A mutant is indicated as being […], which corresponds to EC50 ranges of EC50>1000 nM, 200 nM<EC50≦1000 nM, […], respectively.

In experiment [1] the test system is 1b_Huh-Luc/Neo-ET cell line (bicistronic genotype 1b replicon in Huh 7 cells). Description: HCV 1b replicon assay, luciferase readout. To be noted: Hepatitis C virus. It counts as cell-based, HCV genotype 1b. An outline of the steps:
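Huh 7 cells persistently carrying a bicistronic genotype 1b luciferase replicon, treated with compound in triplicate the day after plating and incubated 72 h. Luciferase activity measured by Bright-Glo and expressed as percent of untreated control; EC50 from four-parameter fit, repeated several times.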
In general terms: Replicon systems follow genome replication, usually without infectious particles.

The target of a further experiment is T1, HCV NS5B S365A mutant (Hepatitis C virus genotype 1b, UniProt Q9WMX2, S2784A).
T1 construct: HCV NS5B C316Y or S365A mutant as indicated; expressed in transfected cells
Description: Activity against HCV NS5B S365A mutant. Format: cell-based. To be noted: class symbol; S3865A mutant. On the procedure:
as §1

The target of a further experiment is T2, HCV NS5B C316Y mutant (Hepatitis C virus genotype 1b, UniProt Q9WMX2, C2735Y).
T2 construct: HCV NS5B C316Y or S365A mutant as indicated; expressed in transfected cells
Description: Activity against HCV NS5B C316Y mutant. Format: cell-based. To be noted: class symbol; C316Y mutant. As for the experimental part: as §1

Where [2] appears, read: Huh-7, 1b_Huh-Luc/Neo-ET cell line, read-out: EC50, half-maximal inhibition of HCV 1b replication.

Read-outs that look alike come from different tables or passages of the source.

T2 sequence (Q9WMX2 2420-3010 C2735Y): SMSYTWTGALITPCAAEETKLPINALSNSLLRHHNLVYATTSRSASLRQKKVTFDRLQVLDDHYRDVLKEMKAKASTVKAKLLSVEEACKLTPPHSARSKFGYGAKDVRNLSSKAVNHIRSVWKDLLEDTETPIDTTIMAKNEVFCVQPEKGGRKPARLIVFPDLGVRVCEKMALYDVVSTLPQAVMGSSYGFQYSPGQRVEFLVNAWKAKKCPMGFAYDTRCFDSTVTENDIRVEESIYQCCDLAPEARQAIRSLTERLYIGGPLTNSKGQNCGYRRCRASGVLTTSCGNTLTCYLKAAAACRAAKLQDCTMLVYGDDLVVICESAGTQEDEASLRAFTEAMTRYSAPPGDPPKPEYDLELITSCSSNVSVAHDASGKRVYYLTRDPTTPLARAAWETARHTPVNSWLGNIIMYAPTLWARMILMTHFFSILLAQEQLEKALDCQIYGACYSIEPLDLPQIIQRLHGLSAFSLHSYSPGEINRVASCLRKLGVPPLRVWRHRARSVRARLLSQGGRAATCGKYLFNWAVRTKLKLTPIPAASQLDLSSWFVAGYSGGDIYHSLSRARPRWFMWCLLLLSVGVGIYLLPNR
T1 sequence (Q9WMX2 2420-3010 S2784A): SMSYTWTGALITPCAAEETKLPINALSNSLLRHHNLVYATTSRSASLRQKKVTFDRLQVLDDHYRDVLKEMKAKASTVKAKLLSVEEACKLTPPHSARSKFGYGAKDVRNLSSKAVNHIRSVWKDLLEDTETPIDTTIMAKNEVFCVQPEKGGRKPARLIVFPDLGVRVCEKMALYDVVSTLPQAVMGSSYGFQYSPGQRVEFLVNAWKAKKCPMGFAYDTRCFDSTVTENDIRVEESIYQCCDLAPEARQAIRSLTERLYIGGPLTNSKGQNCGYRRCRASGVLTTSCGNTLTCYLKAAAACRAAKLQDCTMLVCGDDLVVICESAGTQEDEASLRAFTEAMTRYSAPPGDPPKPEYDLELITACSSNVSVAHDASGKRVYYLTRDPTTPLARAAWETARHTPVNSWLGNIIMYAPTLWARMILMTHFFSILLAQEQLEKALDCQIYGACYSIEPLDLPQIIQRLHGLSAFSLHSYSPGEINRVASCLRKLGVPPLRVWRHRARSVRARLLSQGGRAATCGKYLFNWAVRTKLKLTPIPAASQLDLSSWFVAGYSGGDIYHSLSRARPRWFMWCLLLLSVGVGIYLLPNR

For `CC1CCCN(S(C)(=O)=O)c2cc3oc(-c4ccc(F)cc4)c(-c4ncc[nH]4)c3cc21` (centres unmarked) [Compound B120], the EC50 was < 10 nM in the experiment with HCV 1a and ≤ 10 nM in experiment [1] (setting [2]). Further, the “Inhibition of HCV NS5B S3865A mutant” value at HCV NS5B S365A mutant was “†††”. On HCV NS5B C316Y mutant, the “Inhibition of HCV N55B C316Y mutant” value is listed as “†††”.

Take `CNC(=O)c1c(-c2ccc(Oc3ccc(F)cc3)cc2)oc2cc3c(cc12)[C@H](C)O[C@H](CO)CN3S(C)(=O)=O` [Compound B232]: the EC50 is ≤ 10 nM in experiment [1] (setting [2]) and < 10 nM in experiment [1] (Huh-7, class symbol, HCV genotype 1b replicon, read-out: Inhibition of HCV genotype 1b replicon). Besides, the “Inhibition of HCV NS5B S3865A mutant” value on HCV NS5B S365A mutant is on record as “†††”. The “Inhibition of HCV N55B C316Y mutant” value on HCV NS5B C316Y mutant is on record as “†††”.
